Data: PMC11031590, “Narazaciclib, a novel multi-kinase inhibitor with potent activity against CSF1R, FLT3 and CDK6, shows strong anti-AML activity in defined preclinical models” (Scientific Reports, 2024)
Several values for one entry are separate records, joined by “and”; a condition that tells them apart may be missing. Identical values can stand only once.

Columns and labels:
FLT3 = FLT3 (Homo sapiens, UniProt P36888); assay: FLT3 kinase inhibition assay (ADP-Glo); assay type: biochemical; conditions: ATP 10 μM; read-out: IC50 FLT3 enzymatic activity
Procedure: Different assays were used to measure the inhibitory potencies of narazaciclib on FLT3, CSF1R and CDK6. For FLT3 inhibition, the enzyme, substrate (final concentration at 15 μg/μL), ATP (final concentration at 10 μM) and inhibitors were diluted and mixed in kinase buffer (40 mM Tris, pH 7.5; 20 mM MgCl2; 0.1 mg/ml BSA; 50 μM DTT). The mixtures were incubated at 25 °C for 120 min. Then, ADP‐Glo™ Reagent (Promega) was added to the mix and incubated at 25 °C for 40 min followed by the addition of kinase detection reagent and another 30 min at 25 °C. Luminescence was recorded with an integration time of 0.5 s.

parental Ba/F3 line = assay: Parental Ba/F3 proliferation assay (CTG); assay type: cell-based; conditions: Mus musculus, BaF3
Procedure: (§1) The recombinant Ba/F3 cell lines overexpressing human CSF1R, or human RBM6-CSF1R, or human ETV6-CSF1R were generated using a retrovirus vector (Kyinno Co., Ltd. Beijing). The recombinant Ba/F3 lines overexpressing human Kras G12C orEGFR-L718Q mutants, and different mutant variants of FLT3 were also similarly created as well. A standard proliferation assay via CTG readout was performed according to the vendor’s instructions (KYinno Biotechnology Co., Ltd. Beijing).

Ba/F3-EGFR-L718Q = Ba/F3-EGFR-L718Q proliferation assay (CTG); assay type: cell-based; conditions: Mus musculus
Procedure: as §1

Ba/F3-FLT3-ITD = Ba/F3-FLT3-ITD proliferation assay; assay type: cell-based, mouse
Procedure: as §1

Ba/F3-FLT3-ITD (D835Y) = Ba/F3-FLT3-ITD (D835Y) proliferation assay; assay type: cell-based, mouse
Procedure: as §1

Ba/F3-FLT3-ITD (Y842H) = Ba/F3-FLT3-ITD (Y842H) proliferation assay; assay type: cell-based, mouse
Procedure: as §1

Ba/F3-FLT3-N701K = Ba/F3-FLT3-N701K proliferation assay; assay type: cell-based, mouse
Procedure: as §1

AML cell lines = assay: In vitro proliferation assay, panel of 33 AML cell lines (summary statements); assay type: cell-based; conditions: a subset of AML lines; read-out: IC50 growth inhibition
Procedure: Narazaciclib was serially diluted with culture medium to 9 final assay concentrations from 0.01 to 100 μM. The assay was performed with both a negative control (vehicle) and a positive control (Cisplatin) in triplicate. The AML cell lines at log-growth phase were cultured in 96-well plates (black transparent flat bottom 96-well plate, Corning, Cat# 3603, FBS, ExCell Bio., Cat# FND500) in the presence of narazaciclib or Cisplatin at various concentrations for 72 h or 120 h (only for AML-193 cell line), followed by CTG readout according to the manufacturer’s instruction (CellTiter-Glo Luminescent Cell Viability Assay, Promega, Cat# G7573). Viability%=Lumdrug-Lummedium control/Lumcell control-Lummedium control×100%. Lumcell control-Lummedium controlas100%,LumMediumcontrolas0%. […]
Dose–response curves were fitted by a 4-parameter log-logistic model: Inhibition%=Bottom+Top-Bottom/1+10^logEC50-x∗HillSlope where Top and Bottom are the two asymptotes of the sigmoidal curve, EC50 is the relative IC50, concentration x is in log-10 scale and HillSlope is the slope at the EC50 point on the fitted curve. The fitted area under the curve (AUC) was calculated by: Inhibition%=Bottom+Top-Bottom/1+10^logEC50-x∗HillSlope where a represents the log10-transformed minimal concentration and b represents the log10-transformed maximal concentration. […]

ABL-1 = ABL-1 (Homo sapiens, UniProt P00519); assay: Additional kinase inhibition panel; assay type: biochemical
Excerpt: (§2) Supplement 41598_2024_59650_MOESM2_ESM.docx, table 4: Supplemental Table S4. IC50 of Narazaciclib against additional kinases | column: Narazaciclib (µM); Narazaciclib metabolite (µM)

CDK9 = CDK9 (Homo sapiens, UniProt P50750); assay: Additional kinase inhibition panel; assay type: biochemical
Excerpt: as §2

FGFR2 = FGFR2 (Homo sapiens, UniProt P21802); assay: Additional kinase inhibition panel; assay type: biochemical
Excerpt: as §2

FGFR3 = FGFR3 (Homo sapiens, UniProt P22607); assay: Additional kinase inhibition panel; assay type: biochemical
Excerpt: as §2

FGFR4 = FGFR4 (Homo sapiens, UniProt P22455); assay: Additional kinase inhibition panel; assay type: biochemical
Excerpt: as §2

PDGFRβ = PDGFRβ (Homo sapiens, UniProt P09619); assay: Additional kinase inhibition panel; assay type: biochemical
Excerpt: as §2

RET = RET (Homo sapiens, UniProt P07949); assay: Additional kinase inhibition panel; assay type: biochemical
Excerpt: as §2

SIK2 = SIK2 (Homo sapiens, UniProt Q9H0K1); assay: Additional kinase inhibition panel; assay type: biochemical
Excerpt: as §2

AM8096 AML-PDX = assay: AM8096 systemic AML-PDX model; assay type: in vivo, NOD/scid mice
Procedure: (§3) For systemic AML-PDX models, the model establishment and narazaciclib pharmacology experiment were performed essentially as described previously. Briefly, 2 × 10^6 AM7407 cells, or 2 × 10^6 AM7577 cells, or 2 × 10^6 AM5512 cells, or 1.65 × 10^6 AM8096 cells were inoculated intravenously into 4- to 5-week-old female NOD/scid mice for AML development. Engraftment was confirmed by the presence of circulating human CD45+ cells (anti-human CD45 antibody, Cat. 304038, Biolegend) in peripheral blood. Mice with successful engraftment of AML-PDX were randomized into different treatment groups (N = 6) and received their designated treatments. Narazaciclib was administrated orally or intraperitoneally at 10 mg/kg, or 30 mg/kg, or 100 mg/kg every day throughout the study, while Cytarabine was administrated intraperitoneally at 3 mg/kg every day. Following the initiation of designated treatments, leukemic burden was monitored by flow cytometry with anti-human CD45 antibody on the peripheral blood every week as well as on the peripheral blood, bone marrow cells and splenocytes of mice at sacrifice. Mice were sacrifice once the followings are observed: body weight loss over 20%, reduced motility and activity, labored breathing, ruffled coat, hunched back and severe dehydration.

AM7407 AML-PDX = assay: AM7407 systemic AML-PDX model; assay type: in vivo, NOD/scid mice; conditions: AM7407, 100 mg/kg orally every day
Procedure: as §3

FLT3, sequence (P36888 27-993): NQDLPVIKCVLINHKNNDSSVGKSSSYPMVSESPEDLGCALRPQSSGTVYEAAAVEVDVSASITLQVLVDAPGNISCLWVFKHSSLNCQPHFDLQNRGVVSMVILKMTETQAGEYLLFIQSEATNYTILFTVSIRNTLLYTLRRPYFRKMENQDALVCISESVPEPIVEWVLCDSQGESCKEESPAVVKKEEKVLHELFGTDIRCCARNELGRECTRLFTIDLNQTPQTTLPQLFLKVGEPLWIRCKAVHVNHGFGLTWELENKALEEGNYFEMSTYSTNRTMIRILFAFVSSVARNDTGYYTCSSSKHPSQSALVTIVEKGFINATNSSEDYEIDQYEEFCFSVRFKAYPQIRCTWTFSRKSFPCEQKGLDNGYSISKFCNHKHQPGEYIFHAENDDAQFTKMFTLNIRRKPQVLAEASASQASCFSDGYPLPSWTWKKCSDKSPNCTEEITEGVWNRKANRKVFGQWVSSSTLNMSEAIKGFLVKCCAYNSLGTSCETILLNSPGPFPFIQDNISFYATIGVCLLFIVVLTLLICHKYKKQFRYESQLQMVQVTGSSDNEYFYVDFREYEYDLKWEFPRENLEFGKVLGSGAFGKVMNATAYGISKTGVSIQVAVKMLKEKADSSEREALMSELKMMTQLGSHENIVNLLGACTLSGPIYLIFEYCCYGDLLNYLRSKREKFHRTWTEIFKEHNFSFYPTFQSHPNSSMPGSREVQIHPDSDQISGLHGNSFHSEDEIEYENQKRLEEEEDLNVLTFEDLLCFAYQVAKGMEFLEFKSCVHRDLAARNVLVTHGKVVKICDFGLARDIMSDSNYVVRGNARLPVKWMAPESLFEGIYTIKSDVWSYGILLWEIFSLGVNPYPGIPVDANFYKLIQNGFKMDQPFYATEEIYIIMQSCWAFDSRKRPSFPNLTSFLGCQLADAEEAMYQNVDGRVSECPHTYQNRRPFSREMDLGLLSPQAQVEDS
FGFR3, sequence (P22607 23-806): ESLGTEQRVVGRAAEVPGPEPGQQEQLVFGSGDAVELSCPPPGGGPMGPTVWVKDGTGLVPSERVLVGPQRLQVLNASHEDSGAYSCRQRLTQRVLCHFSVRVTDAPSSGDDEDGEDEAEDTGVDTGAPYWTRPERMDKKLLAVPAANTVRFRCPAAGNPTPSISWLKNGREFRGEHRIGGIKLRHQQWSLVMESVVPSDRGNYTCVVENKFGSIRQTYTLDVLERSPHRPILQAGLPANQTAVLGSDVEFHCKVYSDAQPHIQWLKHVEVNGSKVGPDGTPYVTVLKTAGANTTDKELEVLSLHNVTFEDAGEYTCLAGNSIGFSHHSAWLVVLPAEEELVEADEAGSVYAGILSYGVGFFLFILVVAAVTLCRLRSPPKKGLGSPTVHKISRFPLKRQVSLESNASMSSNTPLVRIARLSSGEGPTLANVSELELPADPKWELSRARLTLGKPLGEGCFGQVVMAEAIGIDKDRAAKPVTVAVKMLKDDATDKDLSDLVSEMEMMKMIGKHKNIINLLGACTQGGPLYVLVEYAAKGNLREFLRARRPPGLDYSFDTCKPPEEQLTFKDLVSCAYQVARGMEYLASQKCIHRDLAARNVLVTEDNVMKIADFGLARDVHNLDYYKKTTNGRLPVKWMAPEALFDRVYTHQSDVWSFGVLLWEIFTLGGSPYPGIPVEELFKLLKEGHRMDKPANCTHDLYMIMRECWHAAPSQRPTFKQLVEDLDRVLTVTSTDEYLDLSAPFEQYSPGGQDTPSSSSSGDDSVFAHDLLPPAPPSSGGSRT
ABL-1, sequence (P00519 whole entry): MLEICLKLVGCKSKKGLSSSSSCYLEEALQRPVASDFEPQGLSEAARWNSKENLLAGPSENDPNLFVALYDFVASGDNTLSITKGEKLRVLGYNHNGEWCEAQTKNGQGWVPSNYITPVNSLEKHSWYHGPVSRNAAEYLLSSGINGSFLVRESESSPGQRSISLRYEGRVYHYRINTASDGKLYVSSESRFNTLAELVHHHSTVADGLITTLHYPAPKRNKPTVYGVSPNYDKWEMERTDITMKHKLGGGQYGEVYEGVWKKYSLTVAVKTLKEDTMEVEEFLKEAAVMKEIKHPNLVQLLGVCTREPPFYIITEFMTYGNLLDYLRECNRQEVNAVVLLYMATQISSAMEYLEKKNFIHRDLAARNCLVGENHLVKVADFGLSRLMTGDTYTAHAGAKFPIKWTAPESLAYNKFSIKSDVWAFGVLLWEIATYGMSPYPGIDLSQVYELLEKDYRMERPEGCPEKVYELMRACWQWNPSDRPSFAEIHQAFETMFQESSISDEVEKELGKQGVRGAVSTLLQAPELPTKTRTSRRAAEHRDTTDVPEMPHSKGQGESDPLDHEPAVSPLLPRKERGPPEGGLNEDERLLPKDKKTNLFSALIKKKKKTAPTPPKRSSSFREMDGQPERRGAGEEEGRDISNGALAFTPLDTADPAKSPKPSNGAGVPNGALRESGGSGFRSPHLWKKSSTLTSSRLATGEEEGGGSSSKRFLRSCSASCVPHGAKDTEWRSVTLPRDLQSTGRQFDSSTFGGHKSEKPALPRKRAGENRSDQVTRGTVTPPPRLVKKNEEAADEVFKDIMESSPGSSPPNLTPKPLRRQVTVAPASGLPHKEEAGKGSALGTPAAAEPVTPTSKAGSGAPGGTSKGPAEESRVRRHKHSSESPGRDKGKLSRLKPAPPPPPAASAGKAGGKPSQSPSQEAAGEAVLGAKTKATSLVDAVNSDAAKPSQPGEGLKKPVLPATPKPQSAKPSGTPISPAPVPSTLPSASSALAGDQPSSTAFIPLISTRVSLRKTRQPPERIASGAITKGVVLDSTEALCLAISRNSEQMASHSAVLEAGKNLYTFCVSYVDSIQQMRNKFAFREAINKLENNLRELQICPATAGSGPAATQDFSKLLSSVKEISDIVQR
FGFR4, sequence (P22455 22-802): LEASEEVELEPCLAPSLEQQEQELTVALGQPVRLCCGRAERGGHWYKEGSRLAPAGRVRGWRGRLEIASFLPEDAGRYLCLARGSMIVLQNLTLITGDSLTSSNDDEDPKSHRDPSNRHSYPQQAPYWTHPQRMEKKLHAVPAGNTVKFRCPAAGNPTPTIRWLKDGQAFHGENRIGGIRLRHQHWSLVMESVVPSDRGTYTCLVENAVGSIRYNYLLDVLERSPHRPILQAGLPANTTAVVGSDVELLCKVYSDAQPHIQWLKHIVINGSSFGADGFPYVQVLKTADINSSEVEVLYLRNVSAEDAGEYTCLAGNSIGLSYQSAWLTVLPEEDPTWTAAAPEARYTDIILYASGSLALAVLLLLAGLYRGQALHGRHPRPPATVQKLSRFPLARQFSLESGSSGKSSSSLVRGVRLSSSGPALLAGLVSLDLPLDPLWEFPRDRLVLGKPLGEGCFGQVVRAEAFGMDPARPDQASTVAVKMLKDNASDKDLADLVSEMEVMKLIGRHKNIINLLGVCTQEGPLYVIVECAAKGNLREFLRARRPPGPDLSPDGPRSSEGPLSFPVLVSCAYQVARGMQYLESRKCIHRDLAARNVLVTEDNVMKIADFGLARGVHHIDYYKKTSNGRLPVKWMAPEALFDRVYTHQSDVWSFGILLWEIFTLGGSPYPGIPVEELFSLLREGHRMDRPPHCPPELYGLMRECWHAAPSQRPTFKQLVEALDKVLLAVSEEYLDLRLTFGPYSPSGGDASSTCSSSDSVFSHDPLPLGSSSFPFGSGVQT
PDGFRβ, sequence (P09619 33-1106): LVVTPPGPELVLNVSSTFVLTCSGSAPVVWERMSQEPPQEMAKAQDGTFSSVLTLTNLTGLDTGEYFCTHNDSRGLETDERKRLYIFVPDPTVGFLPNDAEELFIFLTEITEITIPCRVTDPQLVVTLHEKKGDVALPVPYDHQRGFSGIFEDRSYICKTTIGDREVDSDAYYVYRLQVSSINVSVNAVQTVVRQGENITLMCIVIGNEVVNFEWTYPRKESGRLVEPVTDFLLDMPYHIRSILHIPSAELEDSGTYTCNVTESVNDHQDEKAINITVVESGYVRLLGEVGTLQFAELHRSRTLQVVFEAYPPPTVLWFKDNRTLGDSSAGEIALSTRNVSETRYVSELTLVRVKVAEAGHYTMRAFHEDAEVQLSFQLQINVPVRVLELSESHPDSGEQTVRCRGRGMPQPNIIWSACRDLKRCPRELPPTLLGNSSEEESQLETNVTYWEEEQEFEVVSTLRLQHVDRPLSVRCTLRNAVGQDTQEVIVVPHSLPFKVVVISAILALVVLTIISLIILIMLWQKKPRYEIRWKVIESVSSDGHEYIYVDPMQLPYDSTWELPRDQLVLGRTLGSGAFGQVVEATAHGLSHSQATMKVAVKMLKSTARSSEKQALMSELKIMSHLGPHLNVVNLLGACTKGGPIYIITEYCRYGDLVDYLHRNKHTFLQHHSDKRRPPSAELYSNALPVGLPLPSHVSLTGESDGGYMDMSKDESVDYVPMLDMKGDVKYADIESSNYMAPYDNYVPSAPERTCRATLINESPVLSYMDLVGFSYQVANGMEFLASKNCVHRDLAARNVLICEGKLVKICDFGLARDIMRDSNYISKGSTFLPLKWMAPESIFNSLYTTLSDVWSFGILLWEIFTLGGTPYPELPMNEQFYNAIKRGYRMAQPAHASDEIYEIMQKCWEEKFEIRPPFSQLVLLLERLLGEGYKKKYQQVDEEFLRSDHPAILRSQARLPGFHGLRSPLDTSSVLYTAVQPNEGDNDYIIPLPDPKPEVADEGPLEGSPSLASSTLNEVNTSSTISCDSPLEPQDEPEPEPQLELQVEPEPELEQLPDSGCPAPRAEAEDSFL

With `CN1CCN(c2ccc(Nc3ncc4cc(C#N)c(=O)n(C5CCCC5)c4n3)cc2)CC1` [Narazaciclib, narazaciclib] the IC50 (FLT3) was ~19.8 nM and 19.8 nM, the IC50 (parental Ba/F3 line) was 1350 nM and the IC50 (Ba/F3-EGFR-L718Q) was 633 nM. The “% of Ba/F3-FLT3 (IC50)” value (Ba/F3-FLT3-ITD) was 31.66%, the IC50 (Ba/F3-FLT3-ITD; Mus musculus) was 95.3 nM and the “% of Ba/F3-FLT3 (IC50)” value (Ba/F3-FLT3-ITD (D835Y)) was 20.19%. The IC50 (Ba/F3-FLT3-ITD (D835Y); Mus musculus) was 60.8 nM, the “% of Ba/F3-FLT3 (IC50)” value (Ba/F3-FLT3-ITD (Y842H)) was 11.20% and the IC50 (Ba/F3-FLT3-ITD (Y842H); Mus musculus) was 33.7 nM. The “% of Ba/F3-FLT3 (IC50)” value (Ba/F3-FLT3-N701K) was 131.40%, the IC50 (Ba/F3-FLT3-N701K; Mus musculus) was 396 nM and the IC50 (AML cell lines) was < 1500 nM. It also gave an IC50 (ABL-1) of 38 nM, an IC50 (CDK9) of 28 nM and an IC50 (FGFR2) of 20 nM. It also gave an IC50 (FGFR3) of 187 nM, an IC50 (FGFR4) of 2740 nM and an IC50 (PDGFRβ) of 10 nM. The IC50 (RET) was 16 nM, the IC50 (SIK2) was 2 nM and the “leukemic load in peripheral blood, spleen and bone marrow” value (AM8096 AML-PDX; AM8096) was “reduce the leukemic load in peripheral blood and spleen, but also the leukemic load in bone marrow”. The “leukemic burdens, dose dependence” value (AM8096 AML-PDX; AM8096, different dose levels) was “reduced the leukemic burdens in a dose-dependent manner”, the response of model (AM8096 AML-PDX; AM8096, narazaciclib 100 mg/kg intraperitoneally every day) was “responded completely” and the response of model (AM7407 AML-PDX) was “did not respond”.
